Patent publication US9498467B2, “Treatment of chronic neutrophilic leukemia (CNL) and atypical chronic myeloid leukemia (aCML) by inhibitors of JAK1” (Incyte Corporation, priority 2014, dated 2016)

Tests used:
[1] = target: T1, human JAK2 (a.a. 828-1132) (Homo sapiens, UniProt O60674); assay: In vitro JAK kinase assay (HTRF), JAK2; assay type: biochemical; conditions: ratio of IC50s at 1 mM ATP
T1 construct: JAK2 (a.a. 828-1132); made in house; host or cells: insect cells (baculovirus)

[2] = target: T2, human JAK1 (a.a. 837-1142) (Homo sapiens, UniProt P23458); assay: In vitro JAK kinase assay (HTRF), JAK1; assay type: biochemical; conditions: 1 mM ATP
T2 construct: human JAK1 (a.a. 837-1142); made in house; host or cells: insect cells (baculovirus)
T2 sequence (P23458 849-1154): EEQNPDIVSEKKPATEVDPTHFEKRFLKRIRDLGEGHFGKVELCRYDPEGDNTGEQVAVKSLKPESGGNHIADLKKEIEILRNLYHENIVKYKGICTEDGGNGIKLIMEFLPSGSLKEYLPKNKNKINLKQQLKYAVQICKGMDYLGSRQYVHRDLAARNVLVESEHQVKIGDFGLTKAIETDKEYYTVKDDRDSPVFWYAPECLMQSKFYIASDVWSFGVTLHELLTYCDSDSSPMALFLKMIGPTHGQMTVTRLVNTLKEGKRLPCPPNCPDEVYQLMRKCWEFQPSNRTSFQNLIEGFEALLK

[3] = tested on: GCSF induced pSTAT3 in human neutrophils; assay: JAK human neutrophil assay (pSTAT3 ELISA); conditions: 0.25 h, read-out: IC50 (inhibition of pSTAT3)

T1 sequence (O60674 828-1132): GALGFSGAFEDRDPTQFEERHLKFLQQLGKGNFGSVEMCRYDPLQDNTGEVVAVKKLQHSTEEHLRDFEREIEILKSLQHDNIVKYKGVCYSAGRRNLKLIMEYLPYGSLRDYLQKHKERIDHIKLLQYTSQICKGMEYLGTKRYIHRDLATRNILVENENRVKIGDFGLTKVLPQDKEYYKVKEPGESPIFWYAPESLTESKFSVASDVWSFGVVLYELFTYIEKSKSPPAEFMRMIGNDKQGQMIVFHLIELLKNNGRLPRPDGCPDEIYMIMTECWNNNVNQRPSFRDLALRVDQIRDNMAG

Row | Structure (SMILES) | JAK2/JAK1 [1] | IC50 [2] [nM] | IC50 [3] [nM]
1 | N#CCC(C1CCN(c2cccc(Cl)n2)C1)n1cc(-c2ncnc3[nH]ccc23)cn1 (single isomer, unassigned) [Compound 3, 3-[1-(6-chloropyridin-2-yl)pyrrolidin-3-yl]-3-[4-(7H-pyrrolo[2,3-d]pyrimidin-4-yl)-1H-pyrazol-1-yl]propanenitrile] | >10 | < 10 | 
2 | C[C@@H](O)c1nc2cnc3ccsc3c2n1[C@H]1CC[C@H](CC#N)OC1 [Compound 1, ((2R,5S)-5-{2-[(1R)-1-hydroxyethyl]-1H-imidazo[4,5-d]thieno[3,2-b]pyridin-1-yl}tetrahydro-2H-pyran-2-yl)acetonitrile] | >10 | < 100 | < 100
3 | Cc1n[nH]c(C)c1-c1cnn(C2(CC#N)CN(c3cc(F)c(C(=O)N[C@@H](C)C(F)(F)F)cc3F)C2)c1 [Compound 2, 4-[3-(cyanomethyl)-3-(3′,5′-dimethyl-1H,1′H-4,4′-bipyrazol-1-yl)azetidin-1-yl]-2,5-difluoro-N-[(1S)-2,2,2-trifluoro-1-methylethyl]benzamide] |  |  | < 100
4 | N#CCC(C1CCN(c2nc3cccnc3o2)C1)n1cc(-c2ncnc3[nH]ccc23)cn1 (centres unmarked) [Compound 4, 3-(1-[1,3]oxazolo[5,4-b]pyridin-2-ylpyrrolidin-3-yl)-3-[4-(7H-pyrrolo[2,3-d]pyrimidin-4-yl)-1H-pyrazol-1-yl]propanenitrile] | >10 | < 10 | 
5 | N#CCC(CN1CCN(C(=O)c2ccc(C#N)cc2F)CC1)n1cc(-c2ncnc3[nH]ccc23)cn1 (centres unmarked) [Compound 5] | >10 | < 10 | 
6 | N#CCC(CN1CCN(C(=O)c2ccc(C#N)cc2F)CC1)n1ccc(-c2ncnc3[nH]ccc23)c1 (centres unmarked) [Compound 6, 4-[(4-{3-cyano-2-[3-(7H-pyrrolo[2,3-d]pyrimidin-4-yl)-1H-pyrrol-1-yl]propyl}piperazin-1-yl)carbonyl]-3-fluorobenzonitrile] | >10 | < 10 | 
7 | C[C@H](NC(=O)c1cc(F)c(N2CC(CC#N)(n3cc(-c4ncnc5[nH]ccc45)cn3)C2)cc1F)C(F)(F)F [Compound 16, 4-{3-(cyanomethyl)-3-[4-(7H-pyrrolo[2,3-d]pyrimidin-4-yl)-1H-pyrazol-1-yl]azetidin-1-yl}-2,5-difluoro-N-[(1S)-2,2,2-trifluoro-1-methylethyl]benzamide] | >10 | < 10 | 
8 | CCNCc1cc(O[C@H]2CC[C@@H](N3CC(CC#N)(n4cc(-c5ncnc6[nH]ccc56)cn4)C3)CC2)nc(C(F)(F)F)c1 [Compound 19, {1-(cis-4-{[4-[(ethylamino)methyl]-6-(trifluoromethyl)pyridin-2-yl]oxy}cyclohexyl)-3-[4-(7H-pyrrolo[2,3-d]pyrimidin-4-yl)-1H-pyrazol-1-yl]azetidin-3-yl}acetonitrile] | >10 | < 10 | 
9 | CC(C)(O)c1cc(O[C@H]2CC[C@@H](N3CC(CC#N)(n4cc(-c5ncnc6[nH]ccc56)cn4)C3)CC2)nc(C(F)(F)F)c1 [Compound 20, {1-(cis-4-{[4-(1-hydroxy-1-methylethyl)-6-(trifluoromethyl)pyridin-2-yl]oxy}cyclohexyl)-3-[4-(7H-pyrrolo[2,3-d]pyrimidin-4-yl)-1H-pyrazol-1-yl]azetidin-3-yl}acetonitrile] | >10 | < 10 | 
10 | N#CCC1(n2cc(-c3ncnc4[nH]ccc34)cn2)CN([C@H]2CC[C@@H](Oc3cc(CN4CC[C@@H](O)C4)cc(C(F)(F)F)n3)CC2)C1 [Compound 21, {1-(cis-4-{[4-{[(3R)-3-hydroxypyrrolidin-1-yl]methyl}-6-(trifluoromethyl)pyridin-2-yl]oxy}cyclohexyl)-3-[4-(7H-pyrrolo[2,3-d]pyrimidin-4-yl)-1H-pyrazol-1-yl]azetidin-3-yl}acetonitrile] | >10 | < 10 | 
11 | N#CCC1(n2cc(-c3ncnc4[nH]ccc34)cn2)CN([C@H]2CC[C@@H](Oc3cc(CN4CC[C@H](O)C4)cc(C(F)(F)F)n3)CC2)C1 [Compound 22, {1-(cis-4-{[4-{[(3S)-3-hydroxypyrrolidin-1-yl]methyl}-6-(trifluoromethyl)pyridin-2-yl]oxy}cyclohexyl)-3-[4-(7H-pyrrolo[2,3-d]pyrimidin-4-yl)-1H-pyrazol-1-yl]azetidin-3-yl}acetonitrile] | >10 | < 10 | 

Further lines, results first:

Row | JAK2/JAK1 [1] | IC50 [2] [nM] | IC50 [3] [nM] | Structure (SMILES)
12 | >10 | < 10 | < 100 | N#CCC1(n2cc(-c3ncnc4[nH]ccc34)cn2)CN(C2CCN(C(=O)c3ccnc(C(F)(F)F)c3F)CC2)C1 [Compound 7, {1-{1-[3-Fluoro-2-(trifluoromethyl)iso-nicotinoyl]piperidin-4-yl}-3-[4-(7H-pyrrolo[2,3-d]pyrimidin-4-yl)-1H-pyrazol-1-yl]azetidin-3-yl}acetonitrile]
13 | >10 | < 10 |  | N#CCC1(n2cc(-c3ncnc4[nH]ccc34)cn2)CN(C2CCN(C(=O)Nc3ccc(F)cc3C(F)(F)F)CC2)C1 [Compound 8, 4-{3-(Cyanomethyl)-3-[4-(7H-pyrrolo[2,3-d]pyrimidin-4-yl)-1H-pyrazol-1-yl]azetidin-1-yl}-N-[4-fluoro-2-(trifluoromethyl)phenyl] piperidine-1-carboxamide]
14 | >10 | < 10 |  | N#CCC1(n2cc(-c3ncnc4[nH]ccc34)cn2)CN(C2CCN(C(=O)c3ccnc(C(F)(F)F)n3)CC2)C1 [Compound 9, [3-[4-(7H-pyrrolo[2,3-d]pyrimidin-4-yl)-1H-pyrazol-1-yl]-1-(1-{[2-(trifluoromethyl)pyrimidin-4-yl]carbonyl}piperidin-4-yl)azetidin-3-yl]acetonitrile]
15 | >10 | < 10 |  | N#CC[C@]1(n2cc(-c3ncnc4[nH]ccc34)cn2)C[C@H](N2CCN(C(=O)c3ccnc(C(F)(F)F)n3)CC2)C1 [Compound 10, [trans-1-[4-(7H-pyrrolo[2,3-d]pyrimidin-4-yl)-1H-pyrazol-1-yl]-3-(4-{[2-(trifluoromethyl)pyrimidin-4-yl]carbonyl}piperazin-1-yl)cyclobutyl] acetonitrile]
16 | >10 | < 10 |  | N#CC[C@]1(n2cc(-c3ncnc4[nH]ccc34)cn2)C[C@H](N2CCC(Oc3cc(CN4CC(O)C4)cc(C(F)(F)F)n3)CC2)C1 [Compound 11, {trans-3-(4-{[4-[(3-hydroxyazetidin-1-yl)methyl]-6-(trifluoromethyl)pyridin-2-yl]oxy}piperidin-1-yl)-1-[4-(7H-pyrrolo[2,3-d]pyrimidin-4-yl)-1H-pyrazol-1-yl]cyclobutyl} acetonitrile]
17 | >10 | < 10 |  | N#CC[C@]1(n2cc(-c3ncnc4[nH]ccc34)cn2)C[C@H](N2CCC(Oc3cc(CN4CCC[C@H]4CO)cc(C(F)(F)F)n3)CC2)C1 [Compound 12, {trans-3-(4-{[4-{[(2S)-2-(hydroxymethyl)pyrrolidin-1-yl]methyl}-6-(trifluoromethyl)pyridin-2-yl]oxy}piperidin-1-yl)-1-[4-(7H-pyrrolo[2,3-d]pyrimidin-4-yl)-1H-pyrazol-1-yl]cyclobutyl} acetonitrile]
18 | >10 | < 10 |  | N#CC[C@]1(n2cc(-c3ncnc4[nH]ccc34)cn2)C[C@H](N2CCC(Oc3cc(CN4CCC[C@@H]4CO)cc(C(F)(F)F)n3)CC2)C1 [Compound 13, {trans-3-(4-{[4-{[(2R)-2-(hydroxymethyl)pyrrolidin-1-yl]methyl}-6-(trifluoromethyl)pyridin-2-yl]oxy}piperidin-1-yl)-1-[4-(7H-pyrrolo[2,3-d]pyrimidin-4-yl)-1H-pyrazol-1-yl]cyclobutyl} acetonitrile]
19 | >10 | < 10 |  | N#CCC1(n2cc(-c3ncnc4[nH]ccc34)cn2)CN([C@H]2CC[C@@H](Oc3cc(CCO)nc(C(F)(F)F)n3)CC2)C1 [Compound 18, {1-(cis-4-{[6-(2-hydroxyethyl)-2-(trifluoromethyl)pyrimidin-4-yl]oxy}cyclohexyl)-3-[4-(7H-pyrrolo[2,3-d]pyrimidin-4-yl)-1H-pyrazol-1-yl]azetidin-3-yl}acetonitrile]
20 | >10 | < 10 |  | C[C@@H](CO)NCc1cc(OC2CCN([C@H]3C[C@](CC#N)(n4cc(-c5ncnc6[nH]ccc56)cn4)C3)CC2)nc(C(F)(F)F)c1 [Compound 23, {trans-3-(4-{[4-({[(1S)-2-hydroxy-1-methylethyl]amino}methyl)-6-(trifluoromethyl)pyridin-2-yl]oxy}piperidin-1-yl)-1-[4-(7H-pyrrolo[2,3-d]pyrimidin-4-yl)-1H-pyrazol-1-yl]cyclobutyl} acetonitrile]
21 | >10 | < 10 |  | C[C@@H](O)CNCc1cc(OC2CCN([C@H]3C[C@](CC#N)(n4cc(-c5ncnc6[nH]ccc56)cn4)C3)CC2)nc(C(F)(F)F)c1 [Compound 24, {trans-3-(4-{[4-({[(2R)-2-hydroxypropyl]amino}methyl)-6-(trifluoromethyl)pyridin-2-yl]oxy}piperidin-1-yl)-1-[4-(7H-pyrrolo[2,3-d]pyrimidin-4-yl)-1H-pyrazol-1-yl]cyclobutyl} acetonitrile]
22 | >10 | < 10 |  | C[C@H](O)CNCc1cc(OC2CCN([C@H]3C[C@](CC#N)(n4cc(-c5ncnc6[nH]ccc56)cn4)C3)CC2)nc(C(F)(F)F)c1 [Compound 25, {trans-3-(4-{[4-({[(2S)-2-hydroxypropyl]amino}methyl)-6-(trifluoromethyl)pyridin-2-yl]oxy}piperidin-1-yl)-1-[4-(7H-pyrrolo[2,3-d]pyrimidin-4-yl)-1H-pyrazol-1-yl]cyclobutyl} acetonitrile]
23 | >10 | < 10 |  | N#CC[C@]1(n2cc(-c3ncnc4[nH]ccc34)cn2)C[C@H](N2CCC(Oc3cc(CCO)cc(C(F)(F)F)n3)CC2)C1 [Compound 26, {trans-3-(4-{[4-(2-hydroxyethyl)-6-(trifluoromethyl)pyridin-2-yl]oxy}piperidin-1-yl)-1-[4-(7H-pyrrolo[2,3-d]pyrimidin-4-yl)-1H-pyrazol-1-yl]cyclobutyl} acetonitrile]
